Measurements from patent US7202085B2, “Control of gene expression in eukaryotic cells” (Calgene LLC, priority 1999, dated 2007).
Several values for one entry are separate records, joined by “and”; a condition that tells them apart may be missing. Equal entries are not always repeated.

System: VP16-TraR
Test: Transient GUS reporter assay in carrot protoplasts with VP16-TraR effector and tra box reporter
Type: cell-based, Agrobacterium tumefaciens
Details: Table 8: TraA8(4X) +TraR
From the text: Carrot protoplasts were transfected with the TraA8 (4×)-GUS reporter construct with the 35S-VP16-TraR activator gene and tested for GUS induction by application of wild type AHL and the various AHL analogs described in Example 8.

## CCCCCCC(C(C)=O)C(=O)N[C@@H](CCO)C(=O)O (stereo partly drawn) [compound 26, N-(α-Hexyl-b-ketobutanoyl)-(S)-homoserine]
5 μM
  1, 2, 3 (replicate GUS activities at the lower concentration): 382.0 and 407.6 and 373.1
12.5 μM
  4, 5, 6 (replicate GUS activities at the higher concentration): 2145.8 and 1764.6 and 1527.0
25 μM
  1, 2, 3 (replicate GUS activities at the lower concentration): 1658.7 and 1300.7 and 1586.6
75 μM
  4, 5, 6 (replicate GUS activities at the higher concentration): 2585.3 and 3238.5 and 2815.8
